Read-outs that look alike come from different tables or passages of the source.
Assays:
[1] = test system: IRF-Lucia luciferase reporter (ISRE) in THP1-Dual cells; assay: THP1-Dual IRF-Lucia luciferase reporter assay (ISRE activation); assay type: cell-based, human; conditions: Homo sapiens, THP1-Dual, read-out: THP1 IRF EC50
Method: THP1 Dual (InvivoGen) cell suspensions were cultured in RPMI 1640 (Hyclone, Logan, Utah) supplemented with 10% fetal bovine serum (Hyclone), 100 U/mL Normocin (Invivogen), and 50 U/mL PenStrep (Gibco, Dublin, Ireland) between a density of 7·10^5-2·10^6 cells/mL. Every other passage, media was supplemented with 5 U/mL Blasticidin and 100 U/mL Zeocin to maintain the expression constructs. White, flat-bottom 384-well plates (Greiner, Kremsmunster, Austria, 781080) were seeded with 2.5·10^4 cells/well in a total of 50 μL media containing 5 ng/mL phorbolmyristic acid (PMA) using a Matrix WellMate (Thermo Scientific) dispenser. After 48 hours of incubation at 37° C., media was removed using a BioTek ELx405 CW plate washer set to aspirate and wash each well three times with 65 μL 1×PBS. Plates were reloaded with 50 μL media without PMA and treatments added. Lipopolysaccharide in dimethylsulfoxide (DMSO) was transferred to control wells using a HP D300 microdispenser to a final concentration of 313 ng/mL. Compounds from chemical library plates were copied using a Sciclone (Caliper LifeSciences) mounted with a 384-pin transfer tool to obtain a final concentration of 10 μM. After incubation with treatments for 24 hours, 10 μL of supernatant media from each well was transferred into a white, flat-bottom 384-well plate for luminescence readout and a black-walled, clear flat-bottom 384-well plate for absorbance readout.
Specifically, to enable screening of novel chemical entities (NCEs) in a larger screening effort, a robust high-throughput cell-based assay system for primary hit identification of ISRE activators based on the above-mentioned target validation was desired. Human ISRE activity was verified using a THP-1 monocyte line containing the NF-κB-SEAP and IRF-Lucia luciferase dual reporter (THP1-Dual; Invivogen) that features two reporter genes, SEAP (secreted embryonic alkaline phosphatase) and Lucia luciferase, thereby enabling the simultaneous study of the NF-κB and IRF signalling pathways. The Lucia luciferase reporter is under the control of an ISG54 (interferon-stimulated gene) minimal promoter in conjunction with five IFN-stimulated response elements. The SEAP gene is driven by an IFN-β minimal promoter fused to five copies of the NF-κB consensus transcriptional response element and three copies of the c-Rel binding site. Both reporter proteins are readily measurable in the cell culture supernatant when using QUANTI-LUC™ and QUANTI-Blue SEAP detection reagents.
The responsiveness of the human THP-1 Dual cell line was evaluated in an array of assay conditions to obtain sensitive and reproducible results for the activation of IRF and NF-κB reporters. […] All transfer steps are fully automated using high throughput robotic equipment. Briefly, cells are seeded in differentiation medium using a Matrix WellMate fitted with the WellMate Stacker (Thermo Scientific) and incubated at 37° C. with 5% CO2 for 48 h. Following differentiation, cells are washed using a BioTek ELx405 Select CW plate washer and growth medium added with the Matrix WellMate. Programmed control treatments are added to wells using a D300 digital dispenser fitted with T8+ dispense heads (Hewlett Packard) designed to dispense nanoliter quantities of material. Compounds from library plates are added using a pin tool fitted to a Sciclone ALH 3000 Workstation (Caliper Life Sciences) programmed with Maestro v4.4. After treatment, plates are returned to incubators for 24 hours. To measure reporter expression, supernatant is collected using the Sciclone and dispensed into 2 plates: 1) a white 384-well assay plate for Lucia luminescence measurements and 2) a clear-bottom black 384-well assay plate for SEAP absorbance measurements.

[2] = THP1-Dual cytotoxicity (Cell Titer Glo, ATP); assay type: cell-based, human; conditions: human, THP1-Dual cells, read-out: Thp1 cytotox CC50
Description: FIG. 9C is a CC50 (50% cytotoxic concentration) graph of AV-C dependent IRF activation in THP1-Dual cells, determined with an 8-point dose response experiment. Cell viability was monitored based on quantitation of ATP present, as an indicator of metabolically active cells, where luminescence is proportional to the amount of ATP present, using Cell-Titer Glo (Promega).
The OTRADI Small Molecule Library of approximately 246,000 diverse compounds (see below for description) was screened using the THP1-Dual based HTS platform described above. All transfer steps in the screen are fully automated, thus reducing variability. Primary screening included a single data point or dose for each molecule. After data normalization was applied for each assay run, “hit” selection was performed on the plates that pass the quality control (QC) criterion. Hits were defined as samples having values above the activity cutoff determined based on noise level of the assay to reduce false positive rates. In the pilot study discussed above this activity value was >3σ above the ISRE mean with the added criteria of NFκB activation being lower than […] from the mean to identify IRF selective compounds. The ratio of ISRE:NFκB activity was also calculated as a selectivity index for prioritizing hit selection. Primary hits underwent secondary screening to determine the 50% effective concentration (EC50) and 50% cytotoxic concentration (CC50) of these agents using an 8-point dose-response curve in the human THP1-Dual cells. Cytotoxicity was measured in the plate using Cell Titer Glo (Promega). Identified candidate compounds were further screened (orthogonal screen) for cross species activity in the validated mouse J774-Dual assay using an 8-point dose-response format to determine EC50 and CC50 values as well as ISRE:NFκB ratios. A general process flow for the experimental design laid out above is depicted at FIG. 12.

J774-Dual cytotoxicity = assay type: cell-based, mouse; conditions: mouse, J774-Dual cells, read-out: J774 cytotox CC50
Method: The OTRADI Small Molecule Library of approximately 246,000 diverse compounds (see below for description) was screened using the THP1-Dual based HTS platform described above. All transfer steps in the screen are fully automated, thus reducing variability. Primary screening included a single data point or dose for each molecule. After data normalization was applied for each assay run, “hit” selection was performed on the plates that pass the quality control (QC) criterion. Hits were defined as samples having values above the activity cutoff determined based on noise level of the assay to reduce false positive rates. […] The ratio of ISRE:NFκB activity was also calculated as a selectivity index for prioritizing hit selection. Primary hits underwent secondary screening to determine the 50% effective concentration (EC50) and 50% cytotoxic concentration (CC50) of these agents using an 8-point dose-response curve in the human THP1-Dual cells. Cytotoxicity was measured in the plate using Cell Titer Glo (Promega). Identified candidate compounds were further screened (orthogonal screen) for cross species activity in the validated mouse J774-Dual assay using an 8-point dose-response format to determine EC50 and CC50 values as well as ISRE:NFκB ratios. A general process flow for the experimental design laid out above is depicted at FIG. 12.

[3] = Human Reporter Cell Line, 8-point dose response

Compound	EC50 [1, 3] [µM]	EC50 ([1]; Human Reporter Cell Line THP1) [µM]	CC50 ([2]; Human Reporter Cell Line) [µM]	CC50 (J774-Dual cytotoxicity; Mouse Reporter Cell Line) [µM]	CC50 ([2]; Human Reporter Cell Line THP1) [µM]	CC50 (J774-Dual cytotoxicity; Mouse Reporter Cell Line J774) [µM]
O=C(Nc1ccc(N2CCN(C(=O)c3cccs3)CC2)cc1)c1ccc2cc(Br)ccc2c1 [NA-17]	2.4	–	14.6	> 25	–	–
COc1ccc(C(=O)Nc2nc(-c3cc4ccccc4oc3=O)cs2)cn1 [ND-28]	–	~3.3	–	–	> 25	> 25
Cc1ccc(-c2nc3ccccc3s2)cc1NC(=O)c1ccc(Cl)c([N+](=O)[O-])c1 [ND-64]	–	7.27	–	–	> 25	> 25
COc1ccc2oc(-c3ccc(C)c(NC(=O)c4ccc(N5CCOCC5)c([N+](=O)[O-])c4)c3)nc2c1 [ND-35]	–	2.13	–	–	35.7	> 25
Cc1cc2nc(-c3ccc(C)c(NC(=O)c4ccc(N5CCCC5)c([N+](=O)[O-])c4)c3)oc2cc1C [ND-34]	–	~11.4	–	–	> 25	> 25
Cc1ccccc1C(=O)N1CCN(c2ccc(NC(=O)c3ccc(OCc4ccccc4)cc3)cc2)CC1 [NA-52]	1.42	–	> 25	> 25	–	–
Cc1cc2nc(-c3ccc(C)c(NC(=O)c4cccc([N+](=O)[O-])c4)c3)oc2cc1C [ND-36]	–	~8.05	–	–	> 25	> 25
COc1ccc2nc(NC(=O)c3ccc(OC)c([N+](=O)[O-])c3)sc2c1 [ND-39]	–	2.49	–	–	> 25	> 25
COc1ccc(C(=O)Nc2cc(-c3nc4cc(C)c(C)cc4o3)ccc2C)cc1N [ND-60]	–	~6.31	–	–	> 25	> 25
COc1cc(C(=O)Nc2cc(-c3nc4ccccc4s3)ccc2C)cc(OC)c1OC [ND-37]	–	11.8	–	–	> 25	> 25
COc1c(Cl)cc(C(=O)Nc2cc(-c3nc4cc(C)c(C)cc4o3)ccc2C)cc1Cl [ND-69]	–	~5.39	–	–	> 25	> 25
O=C(Nc1ccc(N2CCN(C(=O)c3ccccc3)CC2)cc1)c1ccc(OCc2ccccc2)cc1 [NA-51]	~2.63	–	11.3	> 25	–	–
COc1ccc(C(=O)Nc2cc(-c3nc4cc(C)cc(C)c4o3)ccc2C)cc1[N+](=O)[O-] [ND-8]	–	2.95	–	–	> 25	> 25
O=C(Nc1nc2ccc3scnc3c2s1)c1ccc2ccccc2c1 [ND-58]	–	2.8	–	–	> 25	> 25
COC(=O)COc1cccc(NC(=O)c2ccc(NC(=O)c3ccco3)cc2)c1 [NC-1]	2.55	–	27.4	> 25	–	–
COc1ccc2oc(-c3ccc(C)c([N+](=O)[O-])c3)nc2c1 [ND-84]	–	~19.6	–	–	> 25	> 25
COc1ccc(-c2nc3cc(C(C)C)ccc3o2)cc1NC(=O)c1cc(C)cc(C)c1 [ND-91]	–	~5.87	–	–	> 25	> 25
O=C(Nc1ccc(N2CCN(C(=O)c3cccs3)CC2)cc1)c1ccc(OCc2cccnc2)cc1 [NA-61]	2.27	–	–	–	–	–
COc1ccc(C(=O)Nc2cccc(-c3nc4ncccc4o3)c2)cc1[N+](=O)[O-] [ND-41]	–	2.04	–	–	> 25	> 25

Now from value to molecule, other results behind:

EC50 [1, 3] [µM]	EC50 ([1]; Human Reporter Cell Line THP1) [µM]	Compound	CC50 ([2]; Human Reporter Cell Line) [µM]	CC50 (J774-Dual cytotoxicity; Mouse Reporter Cell Line) [µM]	CC50 ([2]; Human Reporter Cell Line THP1) [µM]	CC50 (J774-Dual cytotoxicity; Mouse Reporter Cell Line J774) [µM]
–	~11.9	COc1ccc(C(=O)Nc2cc(-c3nc4cc(C)c(C)cc4o3)ccc2Cl)cc1[N+](=O)[O-] [ND-50]	–	–	> 25	> 25
~1.48	–	O=C(Nc1ccc(N2CCN(C(=O)c3ccccc3)CC2)cc1)c1ccc(-c2cccnc2)cc1 [NA-53]	12.3	29.2	–	–
–	4.68	COc1ccc(C(=O)Nc2nc(-c3cc4ccccc4oc3=O)cs2)nc1 [ND-27]	–	–	> 25	> 25
~10.8	–	O=C(Nc1ccc(N2CCN(C(=O)c3cccs3)CC2)cc1)c1cc(Cl)ccc1Cl [NA-43]	> 25	> 25	–	–
0.358	–	COC(=O)c1ccc(N2CCN(C(=O)c3cccs3)CC2)cc1 [NA-47]	> 25	> 25	–	–
–	3.22	COc1ccc(C(=O)Nc2cccc(-c3nc4cc(C)c(C)cc4o3)c2)cc1[N+](=O)[O-] [ND-46]	–	–	13.1	27.9
–	5.1	COc1ccc(C(=O)Nc2ccc3oc(-c4cccnc4)nc3c2)cc1[N+](=O)[O-] [ND-43]	–	–	20.3	> 25
–	3.14	Cc1ccc(-c2nc3ncccc3o2)cc1NC(=O)c1cc(Br)ccc1Cl [ND-3]	–	–	30.7	> 25
~13.2	–	CC(C)c1ccc(C(=O)Nc2ccc(N3CCN(C(=O)c4ccco4)CC3)cc2)cc1 [NA-4]	37.8	> 25	–	–
–	3.03	COc1cc2nc(-c3ccccc3)nc(N3CCN(CCN4CCCC4)CC3)c2cc1OC [ND-98]	–	–	18.1	19.3
0.109	–	COc1ccc(C(=O)Nc2ccc(N3CCN(C(=O)c4cccs4)CC3)cc2)cc1[N+](=O)[O-] [NA-46]	> 25	> 25	–	–
–	3.83	O=C(Nc1nc(-c2cc3ccccc3oc2=O)cs1)c1ccc(OCc2ccccc2)cc1 [ND-22]	–	–	9.79	–
–	3.13	Cc1ccc(C(=O)Nc2ccc3oc(-c4cccnc4)nc3c2)c(Cl)c1 [ND-4]	–	–	49.3	> 25
3.08	–	O=C(Nc1ccc(N2CCN(C(=O)c3cccs3)CC2)cc1)c1ccc(Br)c2ncccc12 [NA-18]	> 25	> 25	–	–
–	13.5	COc1ccc(C(=O)Nc2nc(-c3cc4ccccc4oc3=O)co2)c2ccccc12 [ND-18]	–	–	–	–
